Counter-ions that a name gives are not always drawn.
Tests used:
[1] = test system: IL-1 beta-induced coronary stenosis; conditions: long term treatment, porcine model; cited from earlier work
[2] = test system: rat stroke model; conditions: cited from earlier work
[3] = target: ROCK2 (Homo sapiens, UniProt O75116); assay: ROCK kinase inhibition assay, FITC peptide substrate, LABCHIP 3000 readout; type: biochemical; conditions: 5 μM ATP, 1.5 μM peptide substrate
Outline: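 Tested across a concentration range, with percent inhibition of kinase activity derived per concentration. Peptide phosphorylation, initiated by adding the Rho kinase variant (final DMSO <2%), was quenched with EDTA and substrate/product resolved by mobility shift.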

Chain of ROCK2 (O75116 whole entry, species assumed): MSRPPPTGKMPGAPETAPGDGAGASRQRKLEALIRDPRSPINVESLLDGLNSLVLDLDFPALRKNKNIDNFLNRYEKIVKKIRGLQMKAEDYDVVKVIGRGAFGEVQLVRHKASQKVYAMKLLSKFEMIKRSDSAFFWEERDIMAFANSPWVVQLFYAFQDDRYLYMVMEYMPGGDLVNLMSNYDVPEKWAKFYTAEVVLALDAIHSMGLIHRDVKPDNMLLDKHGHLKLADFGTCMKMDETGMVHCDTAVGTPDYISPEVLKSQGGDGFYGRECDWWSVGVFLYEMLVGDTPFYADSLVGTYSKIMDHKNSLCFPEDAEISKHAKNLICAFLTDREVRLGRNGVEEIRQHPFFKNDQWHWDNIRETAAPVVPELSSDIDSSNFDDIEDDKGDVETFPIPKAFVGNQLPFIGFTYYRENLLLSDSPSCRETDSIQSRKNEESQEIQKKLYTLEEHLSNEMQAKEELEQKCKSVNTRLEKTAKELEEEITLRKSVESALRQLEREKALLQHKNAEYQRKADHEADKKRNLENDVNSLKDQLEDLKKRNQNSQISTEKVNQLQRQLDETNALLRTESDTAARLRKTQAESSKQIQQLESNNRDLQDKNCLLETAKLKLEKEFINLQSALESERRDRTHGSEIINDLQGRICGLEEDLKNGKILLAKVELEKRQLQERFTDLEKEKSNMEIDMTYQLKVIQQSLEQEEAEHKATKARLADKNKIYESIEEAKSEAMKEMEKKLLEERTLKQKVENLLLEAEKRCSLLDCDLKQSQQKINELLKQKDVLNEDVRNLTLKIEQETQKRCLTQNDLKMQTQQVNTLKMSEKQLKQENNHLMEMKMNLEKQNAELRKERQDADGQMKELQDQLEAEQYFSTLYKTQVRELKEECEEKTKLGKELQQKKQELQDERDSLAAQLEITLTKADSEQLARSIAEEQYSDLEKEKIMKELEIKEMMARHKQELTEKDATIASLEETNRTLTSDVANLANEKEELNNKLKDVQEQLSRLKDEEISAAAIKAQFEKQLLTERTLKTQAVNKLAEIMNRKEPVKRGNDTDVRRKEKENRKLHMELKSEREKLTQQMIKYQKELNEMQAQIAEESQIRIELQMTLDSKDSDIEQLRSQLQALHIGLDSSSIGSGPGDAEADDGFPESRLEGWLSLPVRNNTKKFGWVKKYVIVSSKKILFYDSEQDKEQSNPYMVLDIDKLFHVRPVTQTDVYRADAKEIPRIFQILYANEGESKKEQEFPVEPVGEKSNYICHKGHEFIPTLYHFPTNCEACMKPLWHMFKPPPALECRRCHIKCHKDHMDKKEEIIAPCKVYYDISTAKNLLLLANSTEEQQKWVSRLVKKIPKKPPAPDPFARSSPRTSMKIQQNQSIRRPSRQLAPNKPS

Row | Structure (SMILES) | IC50 [3] [nM] | further results
1 | O=S(=O)(c1cccc2cnccc12)N1CCCNCC1 [fasudil] | – | coronary constrictive remodeling [1]: promote a regression of coronary constrictive remodeling; coronary stenosis [1]: progressively reduce coronary stenosis; infarct size and neurologic deficit [2]: reduce both the infarct size and neurologic deficit
2 | COc1ccc(C(=O)N2CCC3(CC2)CN(c2ccc(-c4cn[nH]c4)cc2)C3=O)cc1 [Example 40, 7-(4-methoxybenzoyl)-2-[4-(1H-pyrazol-4-yl)phenyl]-2,7-diazaspiro[3.5]nonan-1-one] | 132 | –
3 | COc1cc(N2CCC3(CCN(C(=O)c4ccc(-n5cccc5)cc4)CC3)C2=O)ccc1-c1cn[nH]c1 [Example 193, 2-[3-methoxy-4-(1H-pyrazol-4-yl)phenyl]-8-[4-(1H-pyrrol-1-yl)benzoyl]-2,8-diazaspiro[4.5]decan-1-one] | 12 | –
4 | COc1cc(N2CCC3(CCN(C(=O)c4ccc(Cl)cc4)CC3)C2=O)ccc1-c1cn[nH]c1 [Example 18, 8-(4-Chlorobenzoyl)-2-[3-methoxy-4-(1H-pyrazol-4-yl)phenyl]-2,8-diazaspiro[4.5]decan-1-one] | 62 | –
5 | COc1cc(N2CCC3(CCN(C(=O)c4ccc(C5CC5)cc4)CC3)C2=O)ccc1-c1cn[nH]c1 [Example 19, 8-(4-cyclopropylbenzoyl)-2-[3-methoxy-4-(1H-pyrazol-4-yl)phenyl]-2,8-diazaspiro[4.5]decan-1-one] | 10 | –
6 | COc1cc(N2CCC3(CCN(C(=O)c4ccc5ncsc5c4)CC3)C2=O)ccc1-c1cn[nH]c1 [Example 83] | 26 | –
7 | COc1cc(N2CCC3(CCN(C(=O)c4ccc(C(N)=O)cc4)CC3)C2=O)ccc1-c1cn[nH]c1 [Example 181, 4-{2-[3-methoxy-4-(1H-pyrazol-4-yl)phenyl]-1-oxo-2,8-diazaspiro[4.5]decane-8-carbonyl}benzamide] | 35 | –
8 | COc1cc(N2CCC3(CCN(C(=O)Nc4cccnc4)CC3)C2=O)ccc1-c1cn[nH]c1 [Example 214, 2-[3-methoxy-4-(1H-pyrazol-4-yl)phenyl]-1-oxo-N-(pyridin-3-yl)-2,8-diazaspiro[4.5]decane-8-carboxamide] | 1480 | –
9 | COc1cc(N2CCC3(CCN(C(=O)c4ccc(-n5cncn5)nc4)CC3)C2=O)ccc1-c1cn[nH]c1 [Example 145, 2-[3-methoxy-4-(1H-pyrazol-4-yl)phenyl]-8-[6-(1H-1,2,4-triazol-1-yl)pyridine-3-carbonyl]-2,8-diazaspiro[4.5]decan-1-one] | 54 | –
10 | COc1cc(N2CCC3(CCN(C(=O)c4ccc(N5CCN(Cc6nc7ccccc7s6)CC5)cc4)CC3)C2=O)ccc1-c1cn[nH]c1 [Example 229, 8-(4-{4-[(1,3-benzothiazol-2-yl)methyl]piperazin-1-yl}benzoyl)-2-[3-methoxy-4-(1H-pyrazol-4-yl)phenyl]-2,8-diazaspiro[4.5]decan-1-one] | 1.9 | –
11 | COc1cc(N2CCC3(CCN(C(=O)C4CCN(C)CC4)CC3)C2=O)ccc1-c1cn[nH]c1 [Example 172, 2-[3-methoxy-4-(1H-pyrazol-4-yl)phenyl]-8-(1-methylpiperidine-4-carbonyl)-2,8-diazaspiro[4.5]decan-1-one] | 2070 | –
12 | COc1cc(N2CCC3(CCN(C(=O)c4cc5ccccc5[nH]4)CC3)C2=O)ccc1-c1cn[nH]c1 [Example 68, 8-(1H-indole-2-carbonyl)-2-[3-methoxy-4-(1H-pyrazol-4-yl)phenyl]-2,8-diazaspiro[4.5]decan-1-one] | 467 | –
13 | COc1cc(N2CCC3(CCN(C(=O)c4ccc(C(=O)NCC5CC5)cc4)CC3)C2=O)ccc1-c1cn[nH]c1 [Example 26, N-(cyclopropylmethyl)-4-{2-[3-methoxy-4-(1H-pyrazol-4-yl)phenyl]-1-oxo-2,8-diazaspiro[4.5]decane-8-carbonyl}benzamide] | 119 | –
14 | COc1cc(N2CCC3(CCN(C(=O)c4ccc(Br)cc4)CC3)C2=O)ccc1-c1cn[nH]c1 [Example 195, 8-(4-bromobenzoyl)-2-[3-methoxy-4-(1H-pyrazol-4-yl)phenyl]-2,8-diazaspiro[4.5]decan-1-one] | 33 | –
15 | COc1cc(N2CCC3(CCN(C(=O)c4ccc(N5CCN(CC(c6ccccc6)c6ccccc6)CC5)cc4)CC3)C2=O)ccc1-c1cn[nH]c1 [Example 222, 8-{4-[4-(2,2-diphenylethyl)piperazin-1-yl]benzoyl}-2-[3-methoxy-4-(1H-pyrazol-4-yl)phenyl]-2,8-diazaspiro[4.5]decan-1-one] | 9.3 | –
16 | COc1cc(N2CCC3(CCN(C(=O)c4ccc(-c5ccccc5)cc4)CC3)C2=O)ccc1-c1cn[nH]c1 [Example 61, 8-{[1,1′-biphenyl]-4-carbonyl}-2-[3-methoxy-4-(1H-pyrazol-4-yl)phenyl]-2,8-diazaspiro[4.5]decan-1-one] | 18 | –

Row | Structure (SMILES) | IC50 [3] [nM] | further results
17 | COc1ccc(C(=O)N2CCC3(CC2)CCN(c2ccc(-c4cn[nH]c4)c(OC)c2)C3=O)c(F)c1 [Example 17, 8-(2-Fluoro-4-methoxybenzoyl)-2-[3-methoxy-4-(1H-pyrazol-4-yl)phenyl]-2,8-diazaspiro[4.5]decan-1-one] | 8 | –
18 | COc1cc(N2CCC3(CCN(C(=O)c4ccc(N(C)C)cc4)CC3)C2=O)ccc1-c1cn[nH]c1 [Example 21, 8-[4-(dimethylamino)benzoyl]-2-[3-methoxy-4-(1H-pyrazol-4-yl)phenyl]-2,8-diazaspiro[4.5]decan-1-one] | 16 | –
19 | COc1ccc(C(=O)N2CCC3(CC2)CCN(c2ccc(-c4cn[nH]c4)c(OC)c2)C3=O)c(OC)n1 [Example 80, 8-(2,6-dimethoxypyridine-3-carbonyl)-2-[3-methoxy-4-(1H-pyrazol-4-yl)phenyl]-2,8-diazaspiro[4.5]decan-1-one] | 99 | –
20 | COc1cc(N2CCC3(CCN(C(=O)c4ccc5c(c4)nc(C)n5C)CC3)C2=O)ccc1-c1cn[nH]c1 [Example 179, 8-(1,2-dimethyl-1H-1,3-benzodiazole-5-carbonyl)-2-[3-methoxy-4-(1H-pyrazol-4-yl)phenyl]-2,8-diazaspiro[4.5]decan-1-one] | 2.3 | –
21 | COc1cc(N2CCC3(CCN(C(=O)c4ccc(N5CCN(CCC(C)(C)C)CC5)cc4)CC3)C2=O)ccc1-c1cn[nH]c1 [Example 231, 8-{4-[4-(3,3-dimethylbutyl)piperazin-1-yl]benzoyl}-2-[3-methoxy-4-(1H-pyrazol-4-yl)phenyl]-2,8-diazaspiro[4.5]decan-1-one] | 2.2 | –
22 | COc1cc(N2CCC3(CCN(C(=O)c4nnc(-c5ccccn5)[nH]c4=O)CC3)C2=O)ccc1-c1cn[nH]c1 [Example 125, 2-[3-methoxy-4-(1H-pyrazol-4-yl)phenyl]-8-[5-oxo-3-(pyridin-2-yl)-4,5-dihydro-1,2,4-triazine-6-carbonyl]-2,8-diazaspiro[4.5]decan-1-one] | 26 | –
23 | COc1cc(N2CCC3(CCN(C(=O)c4ccc(-n5cncn5)cc4)CC3)C2=O)ccc1-c1cn[nH]c1 [Example 106, 2-[3-methoxy-4-(1H-pyrazol-4-yl)phenyl]-8-[4-(1H-1,2,4-triazol-1-yl)benzoyl]-2,8-diazaspiro[4.5]decan-1-one] | 25 | –
24 | COc1cc(N2CCC3(CCN(C(=O)c4ccc(-c5cnco5)cc4)CC3)C2=O)ccc1-c1cn[nH]c1 [Example 160, 2-[3-methoxy-4-(1H-pyrazol-4-yl)phenyl]-8-[4-(1,3-oxazol-5-yl)benzoyl]-2,8-diazaspiro[4.5]decan-1-one] | 23 | –
25 | COc1cc(N2CCC3(CCN(C(=O)c4ccc(N5CCN(C(C)CO)CC5)cc4)CC3)C2=O)ccc1-c1cn[nH]c1 (stereo not drawn) [Example 242, 8-{4-[4-(1-hydroxypropan-2-yl)piperazin-1-yl]benzoyl}-2-[3-methoxy-4-(1H-pyrazol-4-yl)phenyl]-2,8-diazaspiro[4.5]decan-1-one] | 0.7 | –
26 | COc1cc(N2CCC3(CCN(C(=O)c4cnc(Cl)cn4)CC3)C2=O)ccc1-c1cn[nH]c1 [Example 115, 8-(5-chloropyrazine-2-carbonyl)-2-[3-methoxy-4-(1H-pyrazol-4-yl)phenyl]-2,8-diazaspiro[4.5]decan-1-one] | 200 | –
27 | COc1cc(N2CCC3(CCN(C(=O)c4ccc(N5CCNC5=O)cc4)CC3)C2=O)ccc1-c1cn[nH]c1 [Example 139, 2-[3-methoxy-4-(1H-pyrazol-4-yl)phenyl]-8-[4-(2-oxoimidazolidin-1-yl)benzoyl]-2,8-diazaspiro[4.5]decan-1-one] | 3.7 | –
28 | COc1cc(N2CCC3(CCN(C(=O)c4ccc(N5CCN(Cc6cccc(NS(C)(=O)=O)c6)CC5)cc4)CC3)C2=O)ccc1-c1cn[nH]c1 [Example 235, N-(3-{[4-(4-{2-[3-methoxy-4-(1H-pyrazol-4-yl)phenyl]-1-oxo-2,8-diazaspiro[4.5]decane-8-carbonyl}phenyl)piperazin-1-yl]methyl}phenyl)methanesulfonamide] | 0.2 | –
29 | O=C1N(c2ccc(-c3cn[nH]c3)cc2)CCC12CCNCC2 [Intermediate 3, 2-(4-(1H-pyrazol-4-yl)phenyl)-2,8-diazaspiro[4.5]decan-1-one, TFA] | 1010 | –
30 | COc1cc(N2CCC3(CCN(C(=O)c4ccc(C(F)(F)F)cn4)CC3)C2=O)ccc1-c1cn[nH]c1 [Example 98, 2-[3-methoxy-4-(1H-pyrazol-4-yl)phenyl]-8-[5-(trifluoromethyl)pyridine-2-carbonyl]-2,8-diazaspiro[4.5]decan-1-one] | 259 | –
31 | COc1cc(N2CCC3(CCN(C(=O)c4ccc(N5CCN(Cc6nccs6)CC5)cc4)CC3)C2=O)ccc1-c1cn[nH]c1 [Example 236, 2-[3-methoxy-4-(1H-pyrazol-4-yl)phenyl]-8-(4-{4-[(1,3-thiazol-2-yl)methyl]piperazin-1-yl}benzoyl)-2,8-diazaspiro[4.5]decan-1-one] | 2.7 | –

— patent US11192891B2, “Diazaspiro ROCK inhibitors” (BRISTOL-MYERS SQUIBB COMPANY, priority 2017, dated 2021)
